Drawing on ChEMBL document CHEMBL2169765, “Structural basis for the accommodation of bis- and tris-aromatic derivatives in vitamin D nuclear receptor” (J Med Chem, 2012), this text covers EC50 and Ratio EC50 for five compounds.

Holding throughout (format): cell-based
Test [1] concerns the target T1, Vitamin D3 receptor (Homo sapiens, UniProt P11473).
T1 sequence (P11473 whole entry): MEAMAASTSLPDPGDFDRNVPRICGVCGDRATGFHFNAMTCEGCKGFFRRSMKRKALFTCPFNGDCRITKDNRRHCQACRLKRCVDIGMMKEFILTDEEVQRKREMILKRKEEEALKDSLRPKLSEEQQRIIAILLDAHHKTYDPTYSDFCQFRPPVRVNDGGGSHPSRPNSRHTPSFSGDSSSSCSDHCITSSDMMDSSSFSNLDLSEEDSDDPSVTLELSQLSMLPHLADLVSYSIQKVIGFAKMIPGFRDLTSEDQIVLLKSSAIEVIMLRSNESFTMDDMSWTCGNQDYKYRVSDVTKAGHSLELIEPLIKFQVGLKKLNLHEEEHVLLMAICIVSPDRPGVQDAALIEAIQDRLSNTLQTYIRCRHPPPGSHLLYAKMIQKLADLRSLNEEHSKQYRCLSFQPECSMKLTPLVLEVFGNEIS
The test is described as follows: Transactivation of full length human VDR expressed in human HeLa cells assessed as increase in CYP24 transcription after 18 hrs by luciferase reporter gene assay. (In general: In a reporter assay the amount or activity of a reporter protein is the signal.)

The target of test [2] is T2, Vitamin D3 receptor (Homo sapiens) (UniProt P11473).
T2 sequence (whole entry): T1 sequence (P11473 whole entry)
The test is described as follows: Ratio of calcitriol EC50 to compound EC50 for full length human VDR expressed in human HeLa cells.

For test [3], the target named is T1, Vitamin D3 receptor. The test is described as follows: Transactivation of GAL4-fused VDR ligand binding domain expressed in human HeLa cells after 16 hrs by luciferase reporter gene assay.

As for `CCCc1cc(C(O)(CC)CC)ccc1-c1cc(OCc2ccc(CO)c(CO)c2)ccc1CC`, the EC50 at Vitamin D3 receptor [1] was determined as 2.2 nM. In the case of `CCCc1cc(C(O)(CC)CC)ccc1-c1cc(CCc2ccc(CO)c(CO)c2)ccc1C`, the Ratio EC50 in test [2] amounted to 4. For the same compound, at Vitamin D3 receptor [1], the EC50 was 0.5 nM.

Regarding `CC/C(=C\C=C\C(O)(C(F)(F)F)C(F)(F)F)c1cccc(CCc2ccc(CO)c(CO)c2)c1`, the results for the EC50 at Vitamin D3 receptor [3] and on Vitamin D3 receptor [1] were 1.7 nM and 2.8 nM, respectively. `CC/C(=C\C=C\C(O)(C(F)(F)F)C(F)(F)F)c1cccc(OCc2ccc(CO)c(CO)c2)c1` had a concentration for a half-maximal effect (EC50) on Vitamin D3 receptor [3] of 5 nM. `CC/C(=C\C=C\C(O)(CC)CC)c1cccc(OCc2ccc(CO)c(CO)c2)c1`: the EC50 at Vitamin D3 receptor [1] stood at 49 nM.

The term EC50 denotes the concentration that produces a half-maximal response.
